IC50 data for 20 compounds are collected here from patent publication US20070049593A1 (priority 2004, published 2007).

SMILES strings stand for the structures. pIC50: −log10 of the molar value. Where a name gives a salt, the structure may show the parent alone. Some results are limits rather than exact numbers.

In general, pIC50 refers to the negative decadic logarithm of the IC50, by convention in mol/L. Lower therefore signals a large IC50.

T1 sequence (P26663 2420-2963): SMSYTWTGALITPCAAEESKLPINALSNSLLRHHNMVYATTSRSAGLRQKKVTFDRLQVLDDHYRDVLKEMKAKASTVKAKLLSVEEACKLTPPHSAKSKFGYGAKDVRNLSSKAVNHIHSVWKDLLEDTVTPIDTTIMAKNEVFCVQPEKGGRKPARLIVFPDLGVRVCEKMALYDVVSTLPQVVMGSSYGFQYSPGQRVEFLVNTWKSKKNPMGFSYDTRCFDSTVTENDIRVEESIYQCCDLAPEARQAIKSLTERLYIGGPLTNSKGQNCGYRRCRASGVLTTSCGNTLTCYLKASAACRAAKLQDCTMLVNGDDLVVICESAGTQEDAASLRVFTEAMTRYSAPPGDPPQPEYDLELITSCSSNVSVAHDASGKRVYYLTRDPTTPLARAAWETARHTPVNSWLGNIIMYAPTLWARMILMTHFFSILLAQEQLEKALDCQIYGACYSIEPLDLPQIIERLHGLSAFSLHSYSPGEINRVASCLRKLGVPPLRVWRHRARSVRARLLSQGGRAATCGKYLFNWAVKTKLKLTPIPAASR

This assay concerns the target T1, HCV polymerase (Hepatitis C virus genotype 1b, UniProt P26663).
T1 construct: a region encoding NS5B (J Virol 1991 March, 65(3), 1105-13, 544 amino acids after deletion of 47 amino acids on the C-terminal); 6xHis (C); made in house; host or cells: Escherichia coli
Put plainly: biochemical. Further details: species or system HCV BK strain. The method in brief:
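His-tagged NS5B (BK strain, 47-aa C-terminal deletion, E. coli-expressed) at 0.5 μg/ml copied 5 μg/ml run-off RNA bearing the HCV 3′ UTR with 2 μM UTP plus [3H]UTP, 50 μM ATP/GTP, in pH 7.5 Tris with 5 mM MgCl2, 25 °C, 90 min. TCA-precipitated RNA was counted and IC50 calculated.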
`O=C(O)c1ccc2c(C3CCCCC3)c3n(c2c1)CCN(CCN1CCCOCC1)c1cc(F)ccc1-3` [Example 1-170, 13-cyclohexyl-3-fluoro-5-[2-(1,4-oxazepan-4-yl)ethyl]-6,7-dihydro-5H-benzo[5,6][1,4]diazepino[7,1-a]indole-10-carboxylic acid dihydrochloride] gave a negative-log IC50 (pIC50) of more than 7.00. The figure for `O=C(O)c1ccc2c(C3CCCCC3)c3n(c2c1)CCN(CC(=O)N1CCC(F)(F)CC1)c1ccccc1-3` [Example 1-171, 13-cyclohexyl-5-[2-(4,4-difluoropiperidin-1-yl)-2-oxoethyl]-6,7-dihydro-5H-benzo[5,6][1,4]diazepino[7,1-a]indole-10-carboxylic acid monohydrochloride] is more than 7.00; for `O=C(O)c1ccc2c(C3CCCCC3)c3n(c2c1)CCN(CCN1CCC(C(F)(F)F)CC1)c1ccccc1-3` [Example 1-172, 13-cyclohexyl-5-[2-(4-trifluoromethylpiperidin-1-yl)ethyl]-6,7-dihydro-5H-benzo[5,6][1,4]diazepino[7,1-a]indole-10-carboxylic acid dihydrochloride] it is more than 7.00. To `CCCN1CCC(CCN2CCn3c(c(C4CCCCC4)c4ccc(C(=O)O)cc43)-c3ccccc32)CC1` [Example 1-173, 13-cyclohexyl-5-[2-(1-propylpiperidin-4-yl)ethyl]-6,7-dihydro-5H-benzo[5,6][1,4]diazepino[7,1-a]indole-10-carboxylic acid dihydrochloride] belongs more than 7.00; to `O=C(O)c1ccc2c(C3CCCCC3)c3n(c2c1)CCN(CCN1CCC(F)(F)CC1)c1ccccc1-3` [Example 1-174, 13-cyclohexyl-5-[2-(4,4-difluoropiperidin-1-yl)ethyl]-6,7-dihydro-5H-benzo[5,6][1,4]diazepino[7,1-a]indole-10-carboxylic acid dihydrochloride], more than 7.00; to `CCN1CCC(=C(F)CN2CCn3c(c(C4CCCCC4)c4ccc(C(=O)O)cc43)-c3ccccc32)CC1` [Example 1-175, 13-cyclohexyl-5-[2-(1-ethylpiperidin-4-ylidene)-2-fluoroethyl]-6,7-dihydro-5H-benzo[5,6][1,4]diazepino[7,1-a]indole-10-carboxylic acid dihydrochloride], more than 7.00.

For `O=C(O)c1ccc2c(C3CCCCC3)c3n(c2c1)CCN(CCN1CCCCC1)c1ccc(Cl)cc1-3` [Example 1-176, 2-chloro-13-cyclohexyl-5-[2-(piperidin-1-yl)ethyl]-6,7-dihydro-5H-benzo[5,6][1,4]diazepino[7,1-a]indole-10-carboxylic acid dihydrochloride], the pIC50 is more than 7.00. To `O=C(O)c1ccc2c(C3CCCCC3)c3n(c2c1)CCN(CCC1CCCCN1)c1ccccc1-3` (centres unmarked) [Example 1-177, 13-cyclohexyl-5-[2-(piperidin-2-yl)ethyl]-6,7-dihydro-5H-benzo[5,6][1,4]diazepino[7,1-a]indole-10-carboxylic acid dihydrochloride] belongs more than 7.00.

Regarding `CCN1CCCCC1CCN1CCn2c(c(C3CCCCC3)c3ccc(C(=O)O)cc32)-c2ccccc21` (centres unmarked) [Example 1-178, 13-cyclohexyl-5-[2-(1-ethylpiperidin-2-yl)ethyl]-6,7-dihydro-5H-benzo[5,6][1,4]diazepino[7,1-a]indole-10-carboxylic acid dihydrochloride], the negative logarithm of the IC50 (pIC50) was more than 7.00.

With `CSc1ccc2c(c1)N(CCN1CCCCC1)CCn1c-2c(C2CCCCC2)c2ccc(C(=O)O)cc21` [Example 1-179, 13-cyclohexyl-3-methylsulfanyl-5-[2-(piperidin-1-yl)ethyl]-6,7-dihydro-5H-benzo[5,6][1,4]diazepino[7,1-a]indole-10-carboxylic acid dihydrochloride], the negative-log IC50 (pIC50) is more than 7.00.

Compound `NC(=O)c1ccc2c(C3CCCCC3)c3n(c2c1)CCN(CCN1CCCCC1)c1cc(Cl)ccc1-3` [Example 1-180, 3-chloro-13-cyclohexyl-5-[2-(piperidin-1-yl)ethyl]-6,7-dihydro-5H-benzo[5,6][1,4]diazepino[7,1-a]indole-10-carboxamide dihydrochloride] had a negative logarithm of the IC50 (pIC50) of more than 7.00. To `O=C(O)c1ccc2c(C3CCCCC3)c3n(c2c1)CCN(CCc1cccnc1)c1ccccc1-3` [Example 1-181, 13-cyclohexyl-5-[2-(pyridin-3-yl)ethyl]-6,7-dihydro-5H-benzo[5,6][1,4]diazepino[7,1-a]indole-10-carboxylic acid dihydrochloride] belongs more than 7.00; to `O=C(O)c1ccc2c(C3CCCCC3)c3n(c2c1)CCN(CCc1ccncc1)c1ccccc1-3` [Example 1-182, 13-cyclohexyl-5-[2-(pyridin-4-yl)ethyl]-6,7-dihydro-5H-benzo[5,6][1,4]diazepino[7,1-a]indole-10-carboxylic acid dihydrochloride], more than 7.00. To `O=C(O)c1ccc2c(C3CCCCC3)c3n(c2c1)CCN(CCN1C[C@H]2CCCC[C@H]2C1)c1ccccc1-3` [Example 1-183, 13-cyclohexyl-5-[(3aS,7aR)-2-(octahydroisoindol-2-yl)ethyl]-6,7-dihydro-5H-benzo[5,6][1,4]diazepino[7,1-a]indole-10-carboxylic acid dihydrochloride] belongs more than 7.00. To `O=C(O)c1ccc2c(C3CCCCC3)c3n(c2c1)CCN(CCN1CCC2(CCCC2)CC1)c1ccccc1-3` [Example 1-184, 5-[2-(8-azaspiro[4.5]decan-8-yl)ethyl]-13-cyclohexyl-6,7-dihydro-5H-benzo[5,6][1,4]diazepino[7,1-a]indole-10-carboxylic acid dihydrochloride] belongs more than 7.00. `CCN(CC)CCN1CCn2c(c(C3CCCCC3)c3ccc(C(=O)O)cc32)-c2ccccc21` [Example 1-185, 13-cyclohexyl-5-(2-diethylaminoethyl)-6,7-dihydro-5H-benzo[5,6][1,4]diazepino[7,1-a]indole-10-carboxylic acid dihydrochloride]: the negative-log IC50 (pIC50) is more than 7.00. The figure for `CC(C)N(CCN1CCn2c(c(C3CCCCC3)c3ccc(C(=O)O)cc32)-c2ccccc21)C(C)C` [Example 1-186, 13-cyclohexyl-5-(2-diisopropylaminoethyl)-6,7-dihydro-5H-benzo[5,6][1,4]diazepino[7,1-a]indole-10-carboxylic acid dihydrochloride] is more than 7.00.

The compound `CC1CC(C)CN(C(=O)CN2CCn3c(c(C4CCCCC4)c4ccc(C(=O)O)cc43)-c3ccccc32)C1` (centres unmarked) [Example 1-187, 13-cyclohexyl-5-[2-(3,5-dimethylpiperidin-1-yl)-2-oxoethyl]-6,7-dihydro-5H-benzo[5,6][1,4]diazepino[7,1-a]indole-10-carboxylic acid monohydrochloride] had a pIC50 of more than 7.00. The figure for `CCC1CCCN(C(=O)CN2CCn3c(c(C4CCCCC4)c4ccc(C(=O)O)cc43)-c3ccccc32)C1` (centres unmarked) [Example 1-188, 13-cyclohexyl-5-[2-(3-ethylpiperidin-1-yl)-2-oxoethyl]-6,7-dihydro-5H-benzo[5,6][1,4]diazepino[7,1-a]indole-10-carboxylic acid monohydrochloride] is more than 7.00; for `CC1CC(C)CN(CCN2CCn3c(c(C4CCCCC4)c4ccc(C(=O)O)cc43)-c3ccccc32)C1` (centres unmarked) [Example 1-189, 13-cyclohexyl-5-[2-(3,5-dimethylpiperidin-1-yl)ethyl]-6,7-dihydro-5H-benzo[5,6][1,4]diazepino[7,1-a]indole-10-carboxylic acid dihydrochloride] it is more than 7.00.
